Data from patent US10844044B2 (Vanderbilt University, priority 2018, dated 2020).
Read-outs that look alike come from different tables or passages of the source.

Tests used:
[1] = tested on: MV4:11 human cancer cell lines; assay: Anti-proliferative activity, CellTiter-Glo viability assay, 7 day protocol; assay type: cell-based; conditions: Homo sapiens, MV4-11, 168 h, MV4:11 cells, 7 day incubation, read-out: GI50 on cellular proliferation of MV4:11 human cancer cell lines
Procedure, shortened: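 Luminescent CellTiter-Glo readout after 7-day compound exposure of MV4:11 cells plated at 3600 cells/ml (final DMSO 0.1%). GI50 derived from three biological × three technical replicates, reported as mean ± S.E.M.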

[2] = target: WDR5 (Homo sapiens (Human), UniProt P61964); assay: TR-FRET binding assay (displacement of 10mer-Thr-FAM probe from WDR5); conditions: read-out: Ki for Inhibition of WDR5 by TR-FRET assay
[3] = TR-FRET, 10mer-Thr-FAM probe, WDR5-His tag 2 nM, pH 7.0

For `Cc1ccnc(C(NC(=O)c2cc(Cn3ccn(C)c3=N)cc(-c3c(C)ccc4[nH]ncc34)c2)C2CC2)c1` (centres unmarked) [Example 47, N-(cyclopropyl(4-methylpyridin-2-yl)methyl)-3-((2-imino-3-methyl-2,3-dihydro-1H-imidazol-1-yl)methyl)-5-(5-methyl-1H-indazol-4-yl)benzamide], the GI50 [1] was 6700 nM and the Ki [2, 3] was 0.88 nM.
For `COc1cc(CNC(=O)c2cc(Cn3ccn(C)c3=N)cc(-c3c(C)cc(F)cc3F)c2)cc(OC)c1` [Example 52, N-(3,5-dimethoxybenzyl)-2′,4′-difluoro-5-((2-imino-3-methyl-2,3-dihydro-1H-imidazol-1-yl)methyl)-6′-methyl-[1,1′-biphenyl]-3-carboxamide], the GI50 [1] was 510 nM and the Ki [2, 3] was 0.19 nM.
Work on `Cc1cc(CNC(=O)c2cc(Cn3ccn(C)c3=N)cc(-c3c(C)cc(F)cc3F)c2)ccc1Cl` [Example 53, N-(4-Chloro-3-methylbenzyl)-2′,4′-difluoro-5-((2-imino-3-methyl-2,3-dihydro-1H-imidazol-1-yl)methyl)-6′-methyl-[1,1′-biphenyl]-3-carboxamide] yielded a GI50 [1] of 580 nM and a Ki [2, 3] of 0.56 nM.
`Cc1cc(C(C)NC(=O)c2cc(Cn3ccn(C)c3=N)cc(-c3ccc(F)cc3C)n2)ncc1Cl` (centres unmarked) [Example 55, N-(1-(5-Chloro-4-methylpyridin-2-yl)ethyl)-6-(4-fluoro-2-methylphenyl)-4-((2-imino-3-methyl-2,3-dihydro-1H-imidazol-1-yl)methyl)picolinamide] gave a GI50 [1] of 1800 nM and a Ki [2, 3] of 1.8 nM.
Work on `Cc1cc(CNC(=O)c2cc(Cn3ccn(C)c3=N)cc(-c3ccc(F)cc3C)n2)ccc1Cl` [Example 56, N-(4-Chloro-3-methylbenzyl)-6-(4-fluoro-2-methylphenyl)-4-((2-imino-3-methyl-2,3-dihydro-1H-imidazol-1-yl)methyl)picolinamide] yielded a GI50 [1] of 450 nM and a Ki [2, 3] of 1.2 nM.
With `Cc1cc([C@@H](NC(=O)c2cc(Cn3ccn(C)c3=N)cc(-c3cccnc3C(F)(F)F)c2)C2CC2)ccc1F` [Example 60, (S)—N-(cyclopropyl(4-fluoro-3-methylphenyl)methyl)-3-((2-imino-3-methyl-2,3-dihydro-1H-imidazol-1-yl)methyl)-5-(2-(trifluoromethyl)pyridin-3-yl)benzamide] the GI50 [1] was less than 100 nM and the Ki [2, 3] was less than 0.1 nM.
`COc1cc(OC)cc(C(NC(=O)c2cc(Cn3ccn(C)c3=N)cc(-c3ncccc3C(F)(F)F)c2)C2CC2)c1` (centres unmarked) [Example 61, N-(Cyclopropyl(3,5-dimethoxyphenyl)methyl)-3-((2-imino-3-methyl-2,3-dihydro-1H-imidazol-1-yl)methyl)-5-(3-(trifluoromethyl)pyridin-2-yl)benzamide] showed a GI50 [1] of 4200 nM and a Ki [2, 3] of 2.8 nM.
`COc1cc(CNC(=O)c2cc(Cn3ccn(C)c3=N)cc(-c3ccc(F)cc3OC(F)F)c2)cc(OC)c1` [Example 62, 2′-(Difluoromethoxy)-N-(3,5-dimethoxybenzyl)-4′-fluoro-5-((2-imino-3-methyl-2,3-dihydro-1H-imidazol-1-yl)methyl)-[1,1′-biphenyl]-3-carboxamide] gave a GI50 [1] of 800 nM and a Ki [2, 3] of 0.29 nM.
Work on `COc1cc(OC)cc(C(NC(=O)c2cc(Cn3ccn(C)c3=N)cc(-c3ccc(F)cc3OC(F)F)c2)C2CC2)c1` (centres unmarked) [Example 63, N-(Cyclopropyl(3,5-dimethoxyphenyl)methyl)-2′-(difluoromethoxy)-4′-fluoro-5-((2-imino-3-methyl-2,3-dihydro-1H-imidazol-1-yl)methyl)-[1,1′-biphenyl]-3-carboxamide] yielded a GI50 [1] of 460 nM and a Ki [2, 3] of 0.1 nM.
Compound `Cc1cc([C@@H](NC(=O)c2cc(Cn3ccn(C)c3=N)cc(-c3ncccc3C(F)(F)F)c2)C2CC2)ccc1F` [Example 64, (S)—N-(Cyclopropyl(4-fluoro-3-methylphenyl)methyl)-3-((2-imino-3-methyl-2,3-dihydro-1H-imidazol-1-yl)methyl)-5-(3-(trifluoromethyl)pyridin-2-yl)benzamide] has a GI50 [1] of 930 nM and a Ki [2, 3] of 0.59 nM.
In the case of `COc1cc(CNC(=O)c2cc(Cn3ccn(C)c3=N)cc(-c3c(C)cc(F)cc3C)c2)cc(OC)c1` [Example 65, N-(3,5-dimethoxybenzyl)-4′-fluoro-5-((2-imino-3-methyl-2,3-dihydro-1H-imidazol-1-yl)methyl)-2′,6′-dimethyl-[1,1′-biphenyl]-3-carboxamide], the GI50 [1] is reported as 300 nM and the Ki [2, 3] is reported as 0.63 nM.
In the case of `Cc1cc([C@@H](NC(=O)c2cc(Cn3ccn(C)c3=N)cc(-c3ncc(F)cc3C)c2)C2CC2)ccc1F` [Example 66, (S)—N-(Cyclopropyl(4-fluoro-3-methylphenyl)methyl)-3-(5-fluoro-3-methylpyridin-2-yl)-5-((2-imino-3-methyl-2,3-dihydro-1H-imidazol-1-yl)methyl)benzamide], the GI50 [1] is reported as 510 nM and the Ki [2, 3] is reported as 0.12 nM.
`COc1cc(CNC(=O)c2cc(Cn3ccn(C)c3=N)cc(-c3ncc(F)cc3C)c2)cc(OC)c1` [Example 67, N-(3,5-Dimethoxybenzyl)-3-(5-fluoro-3-methylpyridin-2-yl)-5-((2-imino-3-methyl-2,3-dihydro-1H-imidazol-1-yl)methyl)benzamide] showed a GI50 [1] of 3800 nM and a Ki [2] of 3.9 nM.
With `COc1cc(OC)cc(C(NC(=O)c2cc(Cn3ccn(C)c3=N)cc(-c3ncc(F)cc3C)c2)C2CC2)c1` (centres unmarked) [Example 68, N-(Cyclopropyl(3,5-dimethoxyphenyl)methyl)-3-(5-fluoro-3-methylpyridin-2-yl)-5-((2-imino-3-methyl-2,3-dihydro-1H-imidazol-1-yl)methyl)benzamide] the GI50 [1] was 2700 nM and the Ki [2] was 0.35 nM.
With `Cc1ccnc(C(NC(=O)c2cc(Cn3ccn(C)c3=N)cc(-c3ncc(F)cc3C)c2)C2CC2)c1` (centres unmarked) [Example 69] the GI50 [1] was 5100 nM and the Ki [2, 3] was 2.4 nM.
For `Cc1ccnc(C(NC(=O)c2cc(Cn3ccn(C)c3=N)cc(-c3ccc(F)cc3OC(F)F)c2)C2CC2)c1` (centres unmarked) [Example 71, N-(Cyclopropyl(4-methylpyridin-2-yl)methyl)-2′-(difluoromethoxy)-4′-fluoro-5-((2-imino-3-methyl-2,3-dihydro-1H-imidazol-1-yl)methyl)-[1,1′-biphenyl]-3-carboxamide], the GI50 [1] was 1900 nM and the Ki [2, 3] was 0.33 nM.
`Cn1ccn(Cc2cc(C(=O)NC(CC(=O)O)c3ccc(Cl)c(Cl)c3)cc(-c3ccc(F)cc3C(F)(F)F)c2)c1=N` (centres unmarked) [Example 84, 3-(3,4-Dichlorophenyl)-3-(4′-fluoro-5-((2-imino-3-methyl-2,3-dihydro-1H-imidazol-1-yl)methyl)-2′-(trifluoromethyl)-[1,1′-biphenyl]-3-carboxamido)propanoic acid] was tested, and the GI50 [1] was 2100 nM and the Ki [2, 3] was 0.12 nM.
In the case of `Cc1ccnc([C@@H](NC(=O)c2cc(Cn3ccn(C)c3=N)cc(-c3ccc(F)cc3C)c2)C2CC2)c1` [Example 91, (S)—N-(Cyclopropyl(4-methylpyridin-2-yl)methyl)-4′-fluoro-5-((2-imino-3-methyl-2,3-dihydro-1H-imidazol-1-yl)methyl)-2′-methyl-[1,1′-biphenyl]-3-carboxamide], the GI50 [1] is reported as 210 nM and the Ki [2, 3] is reported as less than 0.1 nM.
In the case of `COc1cc(CNC(=O)c2cc(Cn3ccn(C)c3=N)cc(-c3ccc(F)cc3C(F)(F)F)c2)cc(OC)c1` [Example 98, N-(3,5-Dimethoxybenzyl)-4′-fluoro-5-((2-imino-3-methyl-2,3-dihydro-1H-imidazol-1-yl)methyl)-2′-(trifluoromethyl)-[1,1′-biphenyl]-3-carboxamide], the GI50 [1] is reported as 160 nM and the Ki [2, 3] is reported as 0.06 nM.
`Cn1ccn(Cc2cc(C(=O)NC(CC(=O)O)c3ccc(Cl)c(Cl)c3)nc(-c3ccc(F)cc3C(F)(F)F)c2)c1=N` (centres unmarked) [Example 104, 3-(3,4-Dichlorophenyl)-3-(6-(4-fluoro-2-(trifluoromethyl)phenyl)-4-((2-imino-3-methyl-2,3-dihydro-1H-imidazol-1-yl)methyl)picolinamido)propanoic acid] gave a GI50 [1] of 14000 nM and a Ki [2, 3] of 0.13 nM.
`Cc1ccnc(C(NC(=O)c2cc(Cn3ccn(C)c3=N)cc(-c3ccc(F)cc3C(F)(F)F)c2F)C2CC2)c1` (centres unmarked) [Example 105, N-(Cyclopropyl(4-methylpyridin-2-yl)methyl)-2,4′-difluoro-5-((2-imino-3-methyl-2,3-dihydro-1H-imidazol-1-yl)methyl)-2′-(trifluoromethyl)-[1,1′-biphenyl]-3-carboxamide] showed a GI50 [1] of 400 nM and a Ki [2, 3] of less than 0.1 nM.
With `Cc1cc([C@@H](NC(=O)c2cc(Cn3ccn(C)c3=N)cc(-c3ccc(F)cc3C(F)(F)F)n2)C2CC2)ccc1F` [Example 107, (S)—N-(Cyclopropyl(4-fluoro-3-methylphenyl)methyl)-6-(4-fluoro-2-(trifluoromethyl)phenyl)-4-((2-imino-3-methyl-2,3-dihydro-1H-imidazol-1-yl)methyl)picolinamide] the GI50 [1] was 950 nM and the Ki [2, 3] was 0.23 nM.
`COc1cc(CNC(=O)c2cc(Cn3ccn(C)c3=N)cc(-c3ccc(F)cc3C(F)(F)F)c2F)cc(OC)c1` [Example 108, N-(3,5-Dimethoxybenzyl)-2,4′-difluoro-5-((2-imino-3-methyl-2,3-dihydro-1H-imidazol-1-yl)methyl)-2′-(trifluoromethyl)-[1,1′-biphenyl]-3-carboxamide] gave a GI50 [1] of 310 nM and a Ki [2, 3] of less than 0.1 nM.
In the case of `Cc1cc(CNC(=O)c2cc(Cn3ccn(C)c3=N)cc(-c3ccc(F)cc3C(F)(F)F)c2F)ccc1Cl` [Example 111, N-(4-Chloro-3-methylbenzyl)-2,4′-difluoro-5-((2-imino-3-methyl-2,3-dihydro-1H-imidazol-1-yl)methyl)-2′-(trifluoromethyl)-[1,1′-biphenyl]-3-carboxamide], the GI50 [1] is reported as 300 nM and the Ki [2, 3] is reported as less than 0.1 nM.
`CCn1ccn(Cc2cc(C(=O)N[C@H](c3ccc(F)c(C)c3)C3CC3)cc(-c3cccnc3C(F)(F)F)c2)c1=N` [Example 114, (S)—N-(Cyclopropyl(4-fluoro-3-methylphenyl)methyl)-3-((3-ethyl-2-imino-2,3-dihydro-1H-imidazol-1-yl)methyl)-5-(2-(trifluoromethyl)pyridin-3-yl)benzamide] was tested, and the GI50 [1] was 300 nM and the Ki [2] was less than 0.1 nM.
